The record followed here is article PMC11678777, “Haloperidol-Induced Catalepsy and Its Correlations with Acetylcholinesterase Activity in Different Brain Structures of Mice” (Neurology International, 2024).

In the experiment the target is T1, commercial enzyme AChE from Electrophorus electricus (Electrophorus electricus, UniProt O42275).
T1 construct: commercial enzyme (Sigma), native
The experiment is described as follows: Ellman assay, […] nm, 96-well plate. Type of experiment: biochemical. The following applies: AChE 1 U/mL; phosphate buffer 0.1 mol/L pH 8.0; 10 µL of 20 mmol/L acetylthiocholine iodide in 200 µL; 10 min preincubation, room temperature; Haldol formulation.

T1 sequence (O42275 24-633): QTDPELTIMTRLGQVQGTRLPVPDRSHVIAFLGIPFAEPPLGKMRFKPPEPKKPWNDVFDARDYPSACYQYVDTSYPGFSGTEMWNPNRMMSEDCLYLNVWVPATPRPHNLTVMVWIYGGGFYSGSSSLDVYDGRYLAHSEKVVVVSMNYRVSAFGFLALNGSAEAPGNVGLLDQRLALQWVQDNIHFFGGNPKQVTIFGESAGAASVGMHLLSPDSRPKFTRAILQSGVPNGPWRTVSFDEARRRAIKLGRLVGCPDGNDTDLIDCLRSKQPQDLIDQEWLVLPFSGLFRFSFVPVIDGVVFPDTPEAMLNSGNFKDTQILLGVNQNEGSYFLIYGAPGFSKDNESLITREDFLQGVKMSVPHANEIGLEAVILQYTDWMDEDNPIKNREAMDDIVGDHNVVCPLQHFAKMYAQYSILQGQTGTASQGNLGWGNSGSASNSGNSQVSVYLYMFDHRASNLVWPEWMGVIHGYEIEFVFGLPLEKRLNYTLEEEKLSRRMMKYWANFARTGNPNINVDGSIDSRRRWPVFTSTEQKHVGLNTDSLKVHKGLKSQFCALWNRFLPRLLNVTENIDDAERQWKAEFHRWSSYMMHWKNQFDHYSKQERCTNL

In the case of `O=C(CCCN1CCC(O)(c2ccc(Cl)cc2)CC1)c1ccc(F)cc1` [Haloperidol], the dose-dependent inhibition entry is given as “Hal inhibited commercial AChE activity in a dose-dependent manner”.
